In US10117890B2, “Methods and compositions for treating pain” (Academia Sinica, priority 2012, dated 2018):
“Also recorded” adds a separate entry of the source.

Assays:
[1] = test system: acid(ASIC3)-induced chronic muscle pain; assay: Acid-induced chronic muscle pain model (repeated intramuscular acid injection, von Frey test); assay type: in vivo, mice; details: for acid-induced hyperalgesia, co-injection with acidic saline: 1 nmole, i.m.
Source text: Adult (8- to 12-wk-old) C57/BL6 mice were used. All procedures followed the Guide for the Use of Laboratory Animals (National Academy Press, Washington D.C., USA) and were approved by the Institutional Animal Care and Use Committee of Academia Sinica. We aimed to minimize the number of animals used and their suffering without compromising the quality of the experiments. The generation and genotyping of Tac1^−/− mice and Asic3^−/− mice were as described. Both null mutant mice were backcrossed to C57/BL6 for 10 generations to establish a congenic strain. Congenic Tac1^−/− Asic3^−/− mice were offspring of Tacl^+/− and Asic3^+/− intercrosses.
Mice received an intramuscular acid injection in the gastrocnemius muscle (GM) containing 20 μl acid saline (pH 4.0) with or without (Sar^9, Met(O2)^11)-substance P (SP; 4, 10, or 40 μM) or 100 μM RP67580 or 200 μM XE991. Mechanical hyperalgesia was assessed by applying a 0.2-mN von Frey filament to the plantar surface of both hind paws of mice. Mice were acclimatized in an acrylic cubicle for 60 min before testing. A positive response was defined as the foot lifting when the von Frey filament was applied. For each paw, the filament was applied 5 times at 30-sec intervals. Responses of the paw to mechanical stimuli were measured before injection and at 4 and 24 hr and 5 days after the first acid injection (day 0) and at 4, 24, and 72 hr and 1 week after the second acid injection (day 5). For single-injection experiments, responses to mechanical stimuli were measured before the injection, at 4 hr and at 1, 3, 5, 7, 9, 11, 13, 15 and 22 days after the injection or at 4, 24, 48 hr and 7 and 14 days after the injection. NK1-selective agonist ((Sar^9, Met(O2)^11)—SP) was from Sigma Chemical (St. Louis, Mo.). NK1-selective antagonist (RP67580) and XE991 were from Tocris (Avonmouth, UK). The experimenters were blinded to the experimental manipulations. The person who conducted von Frey test had no information of the mouse genotypes or drug injections.

[2] = test system: muscle nociceptors (ASIC3-positive muscle afferent DRG neurons expressing ISP-O); assay: Whole-cell patch-clamp recording of outward currents in muscle afferent DRG neurons; assay type: cell-based, mice; details: for induction of outward current in ASIC3/SP-expressing muscle DRG neurons: SP-sensitive muscle nociceptors; for inhibition of T1-11-induced outward current (IT1-11) by adenosine receptor antagonists: muscle nociceptors
Protocol: The digested DRG neurons were washed with fetal calf serum (FCS)-free DMEM or DMEM containing 10% FCS during each treatment. Fully digested DRGs were triturated and plated on poly-L-lysine-coated cover slides. Cell cultures were maintained in a 5% CO2 incubator at 37° C.
Whole-cell patch-clamp recordings of muscle-afferent neurons involved use of Axopatch MultiClamp 700B (Axon Instruments). Neurons with membrane potential >−40 mV were discarded. The bridge was balanced in current-clamp recording, and the series resistance was compensated 70% in voltage-clamp recording with […] 700B compensation circuitry. All experiments were performed at room temperature (21-25° C.) and completed within 30 hr post-seeding. Unless specifically mentioned, the patch pipettes were prepared in 1-5 MΩ and filled with internal solution containing (in mM) 100 KCl, 2 Nae-ATP, 0.3 Na3-GTP, 10 EGTA, 5 MgCl2, and 40 HEPES, adjusted to pH 7.4 with KOH. Recording cells were superfused in artificial cerebrospinal fluid (ACSF) by control with gravitational force. The ACSF contained (in mM) 130 NaCl, 5 KCl, 1 MgCl2, 2 CaCl2, 10 glucose, and 20 HEPES, adjusted to pH 7.4 with NaOH. Osmolarity was adjusted to 300 mOsm. The acidic ACSF was titrated to pH 6.8 by […]. […] If not specifically mentioned, drugs listed above were from Sigma Chemical (St. Louis, Mo.).
The procedure was repeated at least 2 times to ensure consistent data. […] ACSF-containing compounds were superfused for 1 min to ensure complete replacement of previous perfusate between treatments. […] A recording pipette containing 1 mM GDP-β-S was used in GTP dialysis. The GABA-B current was induced by 100 μM Baclofen at the beginning of dialysis (0, 1 and 2 min after whole-cell patch clamp). Then, Baclofen was used to re-stimulate the dialyzed neurons after 10-min dialysis (10, 11 and 12 min after whole-cell patch clamp).

[3] = test system: ASIC3; assay: Whole-cell patch clamp of acid-induced current in CHO cells transfected with ASIC3; assay type: cell-based
[4] = test system: ICS-induced pain; assay: Intermittent cold stress (ICS) mouse model of fibromyalgia, von Frey test; assay type: in vivo, mice; details: SM-substance P 0.6 mg/kg alone
Protocol: Mechanical hyperalgesia was assessed by applying a 0.2 mN von Frey filament to the plantar surface of both hind paws. For each paw, the filament was applied for 5 times at 30-s intervals.
To induce fibromyalgia-like symptoms, mice were treated with intermittent cold stress, which produces long-lasting (more than 2 weeks) thermal hyperalgesia and mechanical allodynia, predominantly in females. Method: Mice were placed on stainless mesh plate in a cold room at 4° C. overnight (from 4:30 pm to 10:00 am), followed by intermittent cold stress with environment temperatures alternating between 24 and 4° C. every 30 min, from 10:00 am to 4:30 pm. These procedures were repeated twice. On day 3, the mice were adapted to 24 C for 1 h before behavioral testing.
The second fibromyalgia model is developed by Ueda's group, in which mice were treated with intermittent cold stress for 2 days (Nishiyori & Ueda, 2008). Mice treated with intermittent cold stress will develop long-lasting (>2 weeks) mechanical and thermal hyperalgesia. Analgesic effect of T1-11 was tested in these mice 5 day after intermittent cold stress (ICS). […] Moreover, we found T1-11 and substance P have synergistic effect in treating the ICS-induced pain.

CCNC(=O)[C@H]1O[C@@H](n2cnc3c(N)nc(NCCc4ccc(CCC(=O)O)cc4)nc32)C(O)C1O (stereo in doubt) [CGS21680, reference compound]
acid-induced hyperalgesia, co-injection with acidic saline [1]: partially inhibited acid-induced hyperalgesia; also recorded: showed partial analgesic effect
outward current in A2A−/− muscle afferent DRG neurons ([2]; CGS21680 high dose 10 μM): induces an outward current
induction of outward current in ASIC3/SP-expressing muscle DRG neurons [2]: can also induce outward currents

OC[C@H]1O[C@@H](n2cnc3c(NCCc4c[nH]c5ccccc45)ncnc32)C(O)C1O (stereo in doubt) [JMF1907]
induction of outward current in ASIC3/SP-expressing muscle DRG neurons [2]: can also induce outward currents

CNC(=O)[C@H]1O[C@@H](n2cnc3c(NCc4cccc(I)c4)ncnc32)[C@H](O)[C@@H]1O [IB-MECA]
acid-induced hyperalgesia, co-injection with acidic saline [1]: has no effect on acid-induced hyperalgesia; also recorded: did not have analgesic effect

OC[C@H]1O[C@@H](n2cnc3c(NCc4cccc(O)c4)ncnc32)C(O)C1O (some centres unmarked) [JMF1998]
induction of outward current in ASIC3/SP-expressing muscle DRG neurons [2]: can also induce outward currents

OC[C@H]1O[C@@H](n2cnc3c(NCc4ccc(Br)cc4)ncnc32)C(O)C1O (some centres unmarked) [JMF2665]
induction of outward current in ASIC3/SP-expressing muscle DRG neurons [2]: can also induce outward currents

CCCn1cc2c(nc(NC(=O)Nc3ccc(OC)cc3)n3nc(-c4ccco4)nc23)n1 [MRE3008F20, reference compound]
inhibition of T1-11-induced outward current (IT1-11) by adenosine receptor antagonists [2]: reversely inhibited

O=C(Cc1ccccc1)Nc1nc2ccc(Cl)cc2c2nc(-c3ccco3)nn12 [MRS1220, reference compound]
effect of antagonist on the analgesic effect of T1-11 ([1]; MRS1220 200 pmole i.m.): abolished the analgesic effect of T1-11
inhibition of T1-11-induced outward current (IT1-11) by adenosine receptor antagonists [2]: reversely inhibited

COc1ccccc1CC(=N)N1C[C@@H]2C(=O)CCC(c3ccccc3)(c3ccccc3)[C@@H]2C1 [RP67580, reference compound]
inhibition of IT1-11 by NK1 receptor antagonist ([2]; RP67580 (10 n=17)): inhibited IT1-11

O=C(O)c1ccccc1O [salicylic acid, reference compound]
acid-induced current in CHO cells transfected with ASIC3 [3]: blocked

(Sar^9, Met(O2)^11)-substance P [SM-substance P, reference compound]
analgesic effect on ICS-treated mice, SM-substance P alone [4]: did not show analgesic effect

APETx2
acid-induced hyperalgesia, co-injection of acid and APETx2 ([1]; APETx2 2 pmole at the first acid injection): abolished the transient hyperalgesia and prevented the development of chronic hyperalgesia
